In US20190328658A1, “ESTROGEN PRODRUGS AND METHODS OF ADMINISTERING ESTROGEN PRODRUGS” (Evestra, Inc., priority 2018, published 2019):
Values after ≈ are worked out from the molar mass of the structure shown.

Legend:
[1] = EP '025; cited from earlier work
[2] = in vitro release rates of estriol prodrugs from intravaginal rings; type: physicochemical; details: for Burst Release d1 / Burst Release d2 / Average API release d3-d21: ring, API loading 5.0 %, core polymer EVA28/2.5 (E3: EVA26/4.0), 37°C; for Burst Release d1: day 1; for Burst Release d2: day 2; for Average API release d3-d21: days 3-21
Experimental: The estriol prodrugs were processed via hot-melt extrusion and subsequent ring closure to intravaginal rings: […] The hot melt extrusion line for processing the estriol containing EVA28 powder consisted of an 18 mm twin screw extruder, equipped with a loss in weight feeder for dosing the drug containing premix into the extruder. Extrusion was performed at low throughputs of approx. 2 kg/h, the temperature profile of the extruder barrels was adjusted to yield a melt temperature of approx. 125° C. After leaving the die, the strands were directly conveyed through a water bath to obtain a fast cooling process and minimize potential strand deformation. As haul-off unit, a strand pelletizer without knives was used to pull and convey the strand accurately through all downstream sections, ensuring homogeneous strand diameters and a […] shape. […] The cross-sectional diameter of the co-extrudate was measured in-line with a laser system (3 laser heads). […] Alternatively, the ring closure was accomplished via an injection molding process equipment, equipped with a 4.0 mm mold (one or multiple cavities), using EVA28 placebo material as injection material. To determine the in vitro release rates, a rotational incubator, operated at 37±0.5° C., is used. The dissolution medium type, the dissolution medium volume and the rotational speed of the used incubator are selected to provide sink conditions.

[3] = Solubility in EVA by hot stage microscopy; type: physicochemical; details: for Solubility in EVA28/2.5 at 37° C. (via HSM): EVA28/2.5, hot stage microscopy
Source text: Solubilities in EVA were estimated by hot stage microscopy.

[4] = stated in discussion; cited from earlier work
[5] = depending on the model applied; cited from earlier work
[6] = vaginal or oral application; cited from earlier work
[7] = Solubility in water/medium (shaking 24 hours, HPLC); details: 37 °C, thermodynamic from solid
Experimental: (§5) Solubilities were determined by shaking (24 hours) an excess of steroid in 20 ml of water/medium at 37° C. Following equilibrium, a portion was passed through a 0,22m-my filter and the steroid concentration in the filtrate was determined by high-performance liquid chromatography.

[8] = cited from earlier work
[9] = Caco-2 permeability (A-to-B); type: in vitro ADME; details: human; Caco-2, A-to-B, 120 minutes, dosing 5myM
Experimental: (§1) Caco-2 cells (clone C2BBel) were obtained from American Culture Collection. Cell monolayers were grown to confluence on collagen-coated, microporous membranes in 12-well assay plates. The permeability assay buffer was Hank's balanced salt solution. The buffer in the receiving chamber also contained 1% bovine serum albumin. The dosing solution concentration was 5myMof test article in the assay buffer. Cell monolayers were dosed on the apical side (A-to-B) and incubated at 37° C. with 5% CO2 in a humidified incubator. Samples were taken from the donor and receiver chamber at 120 minutes. All samples were assayed by LC-MS/MS using electrospray ionization. The apparent permeability (Papp) were calculated as follows: […]
(§2) With dCr/dt being the slope of the cumulative concentration in the recover compartment versus time in ny Ms^−1;
(§3) Vr is the volume of the receiver compartment in cm^3
(§4) A is the area of the insert (1.13 cm^2 for 12-well)

Log P = type: physicochemical; details: Table 2
Source text: Example 10: Determination of Log p and Permeability Values of Estriol Prodrugs

physchem = details: 37 °C, water, thermodynamic from solid
Experimental: as §5

[10] = system: Caco-2 cells (clone C2BBel); assay: Caco-2 permeability (A-to-B); type: in vitro ADME; details: Caco-2
Experimental: as §1, §2, §3, §4

| SMILES | Burst Release d1 [2] [µg] | Burst Release d2 [2] [µg] | Average API release d3-d21 [2] [µg/day] | Solubility in EVA28/2.5 at 37° C. (via HSM) [3] | Papp A→B at 120 min, 5 µM [9] [×10⁻⁶ cm/s] | recovery at 120 min, 5 µM [9] [%] | logP (Log P) | solubility at 24 h (physchem) [µg/mL] | other results |
| --- | --- | --- | --- | --- | --- | --- | --- | --- | --- |
| CC(=O)O[C@H]1CC[C@H]2[C@@H]3CCc4cc(O)ccc4[C@H]3CC[C@]12C [17-acetate derivative of estradiol] |  |  |  |  |  |  |  |  | daily release rate compared to estradiol [1]: around 3 fold |
| C[C@]12CC[C@@H]3c4ccc(O)cc4CC[C@H]3[C@@H]1C[C@@H](O)[C@@H]2O [Example E3, Estriol] | 665.1 | 294.5 | 119.4 | 0.5-1% |  |  |  |  | log P [4]: 2.81; reduction in activity compared to estradiol [5]: 10 to 30%; time after application after which no estriol plasma level above the limit could be determined [6]: 4 to 6 h; solubility at 24 h ([7]; water + 2% SLS, aqueous with cosolvent or surfactant or cyclodextrin): 465 µg/mL; solubility at 24 h ([7]; water): 58.4 µg/mL (≈ 203 µM) |
| CC(=O)Oc1ccc2c(c1)CC[C@@H]1[C@@H]2CC[C@]2(C)[C@@H](O)CC[C@@H]12 [estradiol-3-acetate, estradiol 3-acetate] |  |  |  |  |  |  |  |  | daily release rate compared to estradiol [1]: above 45 fold; solubility in silicone compared to estradiol ([8]; silicone): around 10 fold; solubility in water compared to estradiol ([8]; water): twofold higher |
| C[C@]12CCC3c4ccc(O)cc4CCC3C1C[C@@H](O)[C@@H]2OC(=O)C1CC1 (stereo partly drawn) [EC537, (16R,17R)-3,16-dihydroxy-7,8,9,11,12,13,14,15,16,17-decahydro-6H-cyclopenta α phenanthren-17-yl cyclopropanecarboxylate] | 15521.1 | 6229.4 | 1785.5 | 4-5 wt % | 24 | 26 | 3.55 | 4.2 (≈ 11.8 µM) | daily release rate compared to estriol-3-acetate [2]: around 10 fold |
| C[C@]12CC[C@@H]3c4ccc(O)cc4CC[C@H]3[C@@H]1CC[C@@H]2O [Example E2, estradiol, reference compound] |  |  |  |  |  | 15 | 4.13 |  | log P [4]: 3.94 |
| C[C@]12CCC3c4ccc(OC(=O)C5CC5)cc4CCC3C1C[C@@H](O)[C@@H]2OC(=O)C1CC1 (stereo partly drawn) [EC5106, 3,16α,17β-Trihydroxyestra-1,3,5(10)-triene 3,17-biscyclopropane carboxylate] |  |  |  |  | 11.4 | 25 | 3.99 |  |  |
| C[C@]12CCC3c4ccc(OC(=O)C5CC5)cc4CCC3C1C[C@@H](O)[C@@H]2O (stereo partly drawn) [EC5105, (8xi,9xi,14xi,16α,17β)-16,17-dihydroxyestra-1(10),2,4-trien-3-yl cyclopropanecarboxylate] | 4301.1 | 1369.8 | 567.3 | 0.5-2 wt % | 1.76 | 3 | 3.38 | 4.9 (≈ 13.7 µM) | Caco-2 permeability, comparison in words [10]: very low permeability compared to the 17 analog |
| C#C[C@]1(O)CC[C@H]2[C@@H]3CCc4cc(O)ccc4[C@H]3CC[C@@]21C [EE, ethinyl estradiol, reference compound] |  |  |  |  | 42.5 | 59 | 4.52 |  |  |
| CC(=O)Oc1ccc2c(c1)CCC1C2CC[C@@]2(C)C1C[C@@H](O)[C@@H]2O (stereo partly drawn) [EC5104, (8xi,9xi,14xi,16α,17β)-16,17-dihydroxyestra-1(10),2,4-trien-3-yl acetate] | 2891.6 | 1322.0 | 548.1 | 0.5 wt % | 23.7 | 64 | 3.02 | 57.8 | solubility in EVA compared to estriol [3]: comparable to the estriol solubility in EVA |
